Experimental findings from patent US11440923B2, “Substituted macrocyclic indole derivatives” (Bayer Aktiengesellschaft, priority 2017, dated 2022) are described below.

By IC50 is commonly meant the midpoint of a concentration-inhibition curve.

Structures can show the parent of a compound that is named as a salt. Where two headings read alike, the source gives them in different places.

The test system of assay [1] is AMO-1 cells. The assay can be described thus: Antiproliferation assay AMO-1 (Assay 7). The assay is classed as cell-based. The method, boiled down: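 CTG luminescence readout; cells plated, overnight at 37 °C, then 72 h compound treatment. Time-zero plate read in parallel. IC50 from day 0 and DMSO-normalised signal.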
Assay [2] concerns the target MCL1 protein / biotinylated BIM BH3 peptide in RKO cells (Homo sapiens (Human), UniProt Q07820). The assay can be described thus: PIxEL: protein-protein interaction in permeabilized cells by ELISA (Assay 5). The format is cell-based. To be noted: PIxEL IC50 (median). The procedure:
PIxEL: Protein-Protein Interaction in Permeabilized Cells by ELISA
Most MCL1 protein molecules are localized at the mitochondria outer membrane and sequester pro-apoptotic proteins through binding of their BCL2 homology domain 3 (BH3 domain). MEB buffer (150 mM mannitol, 10 mM HEPES pH 7.5, 50 mM KCl, 20 μM EDTA, 20 μM EGTA, 5 mM potassium succinate, 0.1% protease-free BSA (SIGMA) with low dose digitonin (0.002%) permeabilizes plasma membrane while leaves live mitochondria, where MCL1 maintains its native localization and conformation. Unlike biophysical assays (e.g. TR-FRET) that use truncated recombinant MCL1 protein, this assay uses full length endogenous MCL1 protein at mitochondria outer membrane. It measures the interaction between MCL1 protein and biotinylated BIM BH3 peptide. Compounds can compete with BIM BH3 peptide to bind to MCL1 protein.
On day 1, RKO colon cancer cell line cells were plated at 0.8 million cells/ml, 100 μl/well in 96-well flat bottom TC plates (Corning). MCL1 antibody (Santa Cruz sc-12756) were diluted at 200 fold (final concentration 1 μg/ml) in carbonate buffer (Thermo Fisher Scientific, pH 9.6), and 50 μl of diluted antibody was added to each well of high bind ELISA plates ([…]). Each plate was tapped to make sure liquid covering entire bottom of wells and incubate at 37° C. overnight.
On the second day, MCL1 antibody was washed from ELISA plate. 250 μl Odyssey® Blocking Buffer (PBS) (Li-Cor) was added to each well, incubated at room temperature for at least 1 hour, then washed once with 250 μl 1×PBST. Plates with RKO cells were gently washed once with 100 μl/well PBS, once with 100 μl/well MEB buffer without digitonin, then 100 μl of MEB buffer with 0.002% digitonin was gently added to each well. Compounds were added with HP Tecan compound dispenser in 3-fold dilution series, highest dose 30 μM, 10-dose per compound in quadruplicates. Biotin-BIM peptide (synthesized by 21st Century) was added with HP Tecan compound dispenser at 0.2 μM immediately after the addition of compounds. Plates were rocked for 1 hour at room temperature. Then MEB buffer was aspirated and 50 μl of CHAPS buffer (50 mM Tris-Cl, pH 7.4, 150 mM NaCl, 1% CHAPS, 1 mM EDTA, 1 mM EGTA, cOmplete protease inhibitors (Roche), PhosSTOP (Roche)) was added to each well. Plates were rocked for 1 hour at 4° C., then 45 μl cell lysate from each well were transferred to ELISA plates coated with MCL1 antibody. Plates were incubated overnight in the cold room with rocking.
On the third day, ELISA plates were washed once with 250 μl 1×PBST. Streptavidin-poly-HRP (Thermo Fisher Scientific) was diluted to 20 ng/ml in Odyssey blocking buffer plus 0.05% Triton-100, and 100 μl was added to each well of the ELISA plate. Plates were incubated at room temperature for 1 hour with rocking, then washed with 100 μl 1×PBST for 3 times. Each SuperSignal ELISA Femto Maximum Sensitivity substrate was added to a 50-ml tube and mixed, then 100 μl of mixed substrate was added to each well. Plates were shaken for 1 minute then luminescence was measured by Envision plate reader […]. Signal of each well were normalized by no-compound control and no-cell control. IC50 was calculated using Graphic Pad PRISM software.

Where [3] appears, read: Homo sapiens, AMO1, 72 h, 72 h, CellTiter-Glo; read-out: Antiproli AMO-1 IC50 median.
[4] abbreviates: 72 h, CellTiter-Glo; read-out: Antiproli AMO-1 IC50 median.
Setting [5] is: read-out: Antiproli AMO-1 IC50 median; 72 h, CellTiter-Glo.

MCL1 protein / biotinylated BIM BH3 peptide in RKO cells, sequence (Q07820 whole entry): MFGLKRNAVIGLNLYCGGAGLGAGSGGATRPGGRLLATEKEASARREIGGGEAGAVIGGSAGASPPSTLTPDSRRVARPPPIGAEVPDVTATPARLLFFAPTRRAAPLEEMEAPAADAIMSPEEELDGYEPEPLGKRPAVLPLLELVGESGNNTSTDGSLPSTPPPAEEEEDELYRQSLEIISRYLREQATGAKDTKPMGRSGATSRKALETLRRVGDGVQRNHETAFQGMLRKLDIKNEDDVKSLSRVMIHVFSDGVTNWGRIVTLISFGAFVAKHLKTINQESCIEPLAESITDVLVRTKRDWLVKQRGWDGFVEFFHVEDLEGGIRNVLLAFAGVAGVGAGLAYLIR

As to `CCc1c2c(nn1C)C(CCN1CCOCC1)OCCCCn1c(C(=O)O)c(CCCOc3cccc4ccccc34)c3ccc(F)c-2c31` (racemic) [Example 10, (rac)-3-ethyl-4-fluoro-2-methyl-15-[2-(morpholin-4-yl)ethyl]-7-[3-(naphthalen-1-yloxy)propyl]-2,10,11,12,13,15-hexahydropyrazolo[4′,3′:9,10][1,6]oxazacycloundecino[8,7,6-hi]indole-8-carboxylic Acid], the 50% inhibitory concentration (IC50) in assay [1] (setting [3]) turned out to be 0.412 µM; in assay [2], 0.325 µM.
`Cc1c2c(nn1C)C(CCO)OCCCCn1c(C(=O)O)c(CCCOc3cccc4ccccc34)c3ccc(Cl)c-2c31` (racemic) [Example 26, (rac)-4-chloro-15-(2-hydroxyethyl)-2,3-dimethyl-7-{3-[(naphthalen-1-yl)oxy]propyl}-2,10,11,12,13,15-hexahydropyrazolo[4′,3′:9,10][1,6]oxazacycloundecino[8,7,6-hi]indole-8-carboxylic Acid]: the IC50 came to 0.577 µM in assay [1] (setting [3]) and 1.25 µM in assay [2].
In the same order, the values of `CCc1c2c(nn1C)C(C(F)(F)F)OCCCCn1c(C(=O)O)c(CCCOc3cccc4ccccc34)c3ccc(Cl)c-2c31` (racemic) [Example 27, (rac)-4-Chloro-3-ethyl-2-methyl-7-{3-[(naphthalen-1-yl)oxy]propyl}-15-(trifluoromethyl)-2,10,11,12,13,15-hexahydropyrazolo[4′,3′:9,10][1,6]oxazacycloundecino[8,7,6-hi]indole-8-carboxylic Acid] are 12.1 µM and 1.96 µM.
Regarding `CCc1c2c(nn1C)C(CCC1CCOCC1)OCCCCn1c(C(=O)O)c(CCCOc3cccc4cc(F)ccc34)c3ccc(Cl)c-2c31` (single isomer, unassigned; enantiomer 1) [Example 61, 4-chloro-3-ethyl-7-{3-[(6-fluoronaphthalen-1-yl)oxy]propyl}-2-methyl-15-[2-(oxan-4-yl)ethyl]-2,10,11,12,13,15-hexahydropyrazolo[4′,3′:9,10][1,6]oxazacycloundecino[8,7,6-hi]indole-8-carboxylic Acid (Enantiomer 1)], in assay [1] (setting [4]), the IC50 was 0.0225 µM.
In the case of `Cc1c2c(nn1C)C(CCN1CCOCC1)OCCCCn1c(C(=O)O)c(CCCOc3cccc4cc(F)ccc34)c3ccc(F)c-2c31` (single isomer, unassigned; enantiomer 2) [Example 21, 4-fluoro-7-{3-[(6-fluoronaphthalen-1-yl)oxy]propyl}-2,3-dimethyl-15-[2-(morpholin-4-yl)ethyl]-2,10,11,12,13,15-hexahydropyrazolo[4′,3′:9,10][1,6]oxazacycloundecino[8,7,6-hi]indole-8-carboxylic Acid (Enantiomer 2)], the IC50 in assay [1] (setting [3]) is greater than 33 µM.
Consider `CCC1OCCCCn2c(C(=O)O)c(CCCOc3cccc4ccccc34)c3ccc(Cl)c(c32)-c2c1nn(C)c2C` (single isomer, unassigned; enantiomer 2) [Example 30, (−)-4-chloro-15-ethyl-2,3-dimethyl-7-{3-[(naphthalen-1-yl)oxy]propyl}-2,10,11,12,13,15-hexahydropyrazolo[4′,3′:9,10][1,6]oxazacycloundecino[8,7,6-hi]indole-8-carboxylic Acid—N-ethylethanamine Salt (Enantiomer 2)], for which, in assay [1] (setting [5]), the IC50 turned out to be 31.6 µM.
As for `Cc1c2c(nn1C)C(CCO)OCCCCn1c(C(=O)O)c(CCCOc3cccc4ccccc34)c3ccc(Cl)c-2c31` (single isomer, unassigned; enantiomer 2) [Example 32, (−)-4-chloro-15-(2-hydroxyethyl)-2,3-dimethyl-7-{3-[(naphthalen-1-yl)oxy]propyl}-2,10,11,12,13,15-hexahydropyrazolo[4′,3′:9,10][1,6]oxazacycloundecino[8,7,6-hi]indole-8-carboxylic Acid (Enantiomer 2)], the half-maximal inhibitory concentration (IC50) in assay [1] (setting [4]) was 25.6 µM.
On to `Cc1c2c(nn1C)C(C1CC1)OCCCCn1c(C(=O)O)c(CCCOc3cccc4ccccc34)c3ccc(Cl)c-2c31` (single isomer, unassigned; enantiomer 2) [Example 36, (−)-4-chloro-15-cyclopropyl-2,3-dimethyl-7-{3-[(naphthalen-1-yl)oxy]propyl}-2,10,11,12,13,15-hexahydropyrazolo[4′,3′:9,10][1,6]oxazacycloundecino[8,7,6-hi]indole-8-carboxylic Acid N-ethylethanamine Salt (Enantiomer 2)], for which the IC50 in assay [1] (setting [5]) turned out to be 15.8 µM.
Take `CCc1c2c(nn1C)C(CCOC)OCCCCn1c(C(=O)O)c(CCCOc3cccc4cc(F)ccc34)c3ccc(Cl)c-2c31` (single isomer, unassigned; enantiomer 2) [Example 43, (−)-4-chloro-3-ethyl-7-{3-[(6-fluoronaphthalen-1-yl)oxy]propyl}-15-(2-methoxyethyl)-2-methyl-2,10,11,12,13,15-hexahydropyrazolo[4′,3′:9,10][1,6]oxazacycloundecino[8,7,6-hi]indole-8-carboxylic Acid—N-ethylethanamine Salt (Enantiomer 2)]: in assay [1] (setting [5]), the IC50 was determined as 20 µM.
Turning to `CCc1c2c(nn1C)C(CCO)OCCCCn1c(C(=O)O)c(CCCOc3cccc4cc(F)ccc34)c3ccc(Cl)c-2c31` (single isomer, unassigned; enantiomer 2) [Example 46, (−)-4-chloro-3-ethyl-7-{3-[(6-fluoronaphthalen-1-yl)oxy]propyl}-15-(2-hydroxyethyl)-2-methyl-2,10,11,12,13,15-hexahydropyrazolo[4′,3′:9,10][1,6]oxazacycloundecino[8,7,6-hi]indole-8-carboxylic Acid (Enantiomer 2)], the 50% inhibitory concentration (IC50) in assay [1] (setting [4]) is 8.65 µM.
With `CCc1c2c(nn1C)C(CCN1CCC(F)(F)C1)OCCCCn1c(C(=O)O)c(CCCOc3cccc4cc(F)ccc34)c3ccc(Cl)c-2c31` (single isomer, unassigned; enantiomer 2) [Example 57, 4-chloro-15-[2-(3,3-difluoropyrrolidin-1-yl)ethyl]-3-ethyl-7-{3-[(6-fluoronaphthalen-1-yl)oxy]propyl}-2-methyl-2,10,11,12,13,15-hexahydropyrazolo[4′,3′:9,10][1,6]oxazacycloundecino[8,7,6-hi]indole-8-carboxylic Acid N-ethylethanamine Salt (Enantiomer 2)], the IC50 in assay [1] (setting [5]) turned out to be 4.52 µM.
Regarding `CCc1c2c(nn1C)C(CCC1CCOCC1)OCCCCn1c(C(=O)O)c(CCCOc3cccc4cc(F)ccc34)c3ccc(Cl)c-2c31` (single isomer, unassigned; enantiomer 2) [Example 62, (−)-4-chloro-3-ethyl-7-{3-[(6-fluoronaphthalen-1-yl)oxy]propyl}-2-methyl-15-[2-(oxan-4-yl)ethyl]-2,10,11,12,13,15-hexahydropyrazolo[4′,3′:9,10][1,6]oxazacycloundecino[8,7,6-hi]indole-8-carboxylic Acid (Enantiomer 2)], the IC50 in assay [1] (setting [4]) was 1.92 µM.
Regarding `CCc1c2c(nn1C)C(CC(C)(C)O)OCCCCn1c(C(=O)O)c(CCCOc3cccc4cc(F)ccc34)c3ccc(Cl)c-2c31` (single isomer, unassigned; enantiomer 21) [Example 54, (−)-4-chloro-3-ethyl-7-{3-[(6-fluoronaphthalen-1-yl)oxy]propyl}-15-(2-hydroxy-2-methylpropyl)-2-methyl-2,10,11,12,13,15-hexahydropyrazolo[4′,3′:9,10][1,6]oxazacycloundecino[8,7,6-hi]indole-8-carboxylic Acid—N-ethylethanamine Salt (Enantiomer 21], the concentration for half-maximal inhibition (IC50) in assay [1] (setting [5]) was found to be 27.8 µM.
